Measurements as given in patent US20030092197A1, “Proteins, genes and their use for diagnosis and treatment of cardiac response” (priority 2000, published 2003).

How the values were obtained:
[1] = system: Cardiac Response-Associated Features (CRFs) in blood; assay: 2D gel electrophoresis of blood: CRFs differentially expressed in treated vs control animals (fold change); format: in vivo, rat
Procedure: Using the following procedure, proteins in blood samples from control animals and animals having cardiac response were separated by isoelectric focusing followed by SDS-PAGE and analyzed. Serial samples were taken over time. Parts 6.1.2 to 6.1.15 (inclusive) of the procedure set forth are hereby designated as the “Reference Protocol”
(§1) Cardiac response was induced by treatment with doxorubicin (DX) 1 mg/kg either alone or 30 min after an i.p. injection of dexrazoxane (ICRF) 50 mg/kg as described in the Examples infra. Treatment with ICRF alone was also administered. The treatment comprised of 7 weekly injections and samples were taken within 24 h after the final injection.
Samples from animals treated to induce cardiac reponse or treated with a cardioprotectant can be collected, prepared and analysed as described herein. In the studies provided herein, animals were administered an intravenous injection of either (i) doxorubicin 1 mg/kg alone; (ii) doxorubicin 1 mg/kg 30 min after an i.p. injection of dexrazoxane 50 mg/kg or (iii) treated with dexrazoxane 50 mg/kg alone. Control groups received saline only. 7 weekly injections were administered and samples were collected 24 h after the final injection. Plasma was collected for discovery of novel biomarkers of cardiac damage using 2-D gel electrophoresis and for measurement of cardiac specific troponin T levels. Tissues were collected for histopathological confirmation of cardiac tissue injury.
A protein assay (Pierce BCA Cat # 23225) was performed on each serum sample as received. Prior to protein separation, each sample was processed for selective depletion of certain proteins, in order to enhance and simplify protein separation and facilitate analysis by removing proteins that may interfere with or limit analysis of proteins of interest. See International Patent Application No. PCT/GB99/01742, filed Jun. 1, 1999, which is incorporated by reference in its entirety, with particular reference to the experimental protocol.
Removal of albumin, haptoglobin, transferrin and immunoglobin G (IgG) from blood (“blood depletion”) was achieved by an affinity chromatography purification step in which the sample was passed through a series of ‘Hi-Trap’ columns containing immobilized antibodies for selective removal of albumin, haptoglobin and transferrin, and protein G for selective removal of immunoglobin G. Two affinity columns in a tandem assembly were prepared by coupling antibodies to protein G-sepharose contained in Hi-Trap columns (Protein G-Sepharose Hi-Trap columns (1 ml) Pharmacia Cat. No. 17-0404-01). This was done by circulating the following solutions sequentially through the columns: (1) Dulbecco's Phosphate Buffered Saline (Gibco BRL Cat. No. 14190-094); (2) concentrated antibody solution; (3) 200 mM sodium carbonate buffer, pH 8.35; (4) cross-linking solution (200 mM sodium carbonate buffer, pH 8.35, 20 mM dimethylpimelimidate); and (5) 500 mM ethanolamine, 500 mM NaCl. A third (un-derivatised) protein G Hi-Trap column was then attached to the lower end of the tandem column assembly.
The chromatographic procedure was automated using an Akta Fast Protein Liquid Chromatography (FPLC) System such that a series of up to seven runs could be performed sequentially. The samples were passed through the series of 3 Hi-Trap columns in which the affinity chromatography media selectively bind the above proteins thereby removing them from the sample. Fractions (typically 3 ml per tube) were collected of unbound material (“Flowthrough fractions”) that eluted through the column during column loading and washing stages and of bound proteins (“Bound/Eluted fractions”) that were eluted by step elution with Immunopure Gentle Ag/Ab Elution Buffer (Pierce Cat. No. 21013). The eluate containing unbound material was collected in fractions which were pooled, desalted/concentrated by centrifugal ultrafiltration and stored to await further analysis by 2D PAGE. […]

[2] = system: spontaneous hypertensive rat; assay: Severity of cardiac myocyte histopathologic lesions graded by light microscopy; format: in vivo; settings: scale of 0 to 3; 7 weekly injections; doxorubicin 1 mg/kg i.v., dexrazoxane 50 mg/kg i.p.
Procedure: as §1
Doxorubicin is a marketed anthracycline anticancer drug that causes a serious chronic cardiac toxicity. The spontaneous hypertensive rat is a useful animal model to study this toxicity. Furthermore by incorporating a cardioprotectant in the study design, the association of protein markers with the undesirable cardiotoxicity of the cardiotoxic agent is strengthened. Pretreatment with the intracellular iron chelating compound dexrazoxane (also referred to as ICRF-187) provides significant cardioprotection against clinical doxorubicin-induced cardiotoxicity and the drug has been FDA approved for this indication.
Samples from animals treated to induce cardiac reponse or treated with a cardioprotectant can be collected, prepared and analysed as described herein. […]
The severity of cardiac myocyte histopathologic lesions (cytoplasmic vacuolization and myofibrillar loss) was graded semiquantitatively by light microscopy on a scale of 0 to 3. […] Plasma cardiac troponin T concentrations were measured by chemiluminescent immunoassay. […]

Structure (SMILES): COc1cccc2c1C(=O)c1c(O)c3c(c(O)c1C2=O)C[C@@](O)(C(=O)CO)C[C@@H]3O[C@H]1C[C@H](N)[C@H](O)[C@H](C)O1 [DX, doxorubicin]
- FC DX vs Control ([1]; CRF 2, pI 5.7, MW 12,367 Da, P 0.010): −10.29
- FC DX vs Control ([1]; CRF 4, pI 5.2, MW 15,589 Da, P 1.7E-04): −9.20
- FC DX vs Control ([1]; CRF 6, pI 4.6, MW 34,921 Da, P 1.0E-03): −7.77
- FC DX vs Control ([1]; CRF 9, pI 5.2, MW 15,591 Da, P 1.5E-03): −5.72
- FC DX vs Control ([1]; CRF 10, pI 5, MW 51,899 Da, P 0.007): −6.99
- FC DX vs Control ([1]; CRF 19, pI 5.7, MW 68,576 Da, P 3.7E-04): −5.12
- FC DX vs Control ([1]; CRF 44, pI 5.8, MW 52,589 Da, P 1.1E-03): 4.83
- FC DX vs Control ([1]; CRF 47, pI 4.4, MW 11,368 Da, P 0.010): 6.81
- FC DX vs Control ([1]; CRF 58, pI 6.8, MW 34,063 Da, P 0.003): 5.43
- FC DX vs Control ([1]; CRF 69, pI 5.2, MW 54,619 Da, P 0.005): −3.54
- FC DX vs Control ([1]; CRF 79, pI 6.8, MW 80,678 Da, P 1.6E-04): −4.51
- FC DX vs Control ([1]; CRF 82, pI 7.6, MW 77,393 Da, P 2.9E-04): −9.06
- FC DX vs Control ([1]; CRF 84, pI 4.8, MW 73,524 Da, P 1.1E-03): −8.60
- FC DX vs Control ([1]; CRF 90, pI 5.2, MW 67,336 Da, P 0.005): −3.93
- FC DX vs Control ([1]; CRF 92, pI 6.0, MW 63,037 Da, P 0.006): −8.26
- FC DX vs Control ([1]; CRF 103, pI 5, MW 56,471 Da, P 0.007): −6.02
- FC DX vs Control ([1]; CRF 104, pI 7, MW 53,989 Da, P 0.003): −11.48
- FC DX vs Control ([1]; CRF 112, pI 7.1, MW 47,499 Da, P 0.006): 4.92
- FC DX vs Control ([1]; CRF 115, pI 7.1, MW 38,136 Da, P 2.3E-04): 3.55
- FC DX vs Control ([1]; CRF 118, pI 6.5, MW 33,117 Da, P 3.4E-04): −4.82
- FC DX vs Control ([1]; CRF 122, pI 5.3, MW 24,915 Da, P 0.003): 3.98
- FC DX vs Control ([1]; CRF 127, pI 4.8, MW 23,325 Da, P 0.006): 5.25
- FC DX vs Control ([1]; CRF 129, pI 5.4, MW 17,765 Da, P 0.010): 4.29
- FC DX vs Control ([1]; CRF 130, pI 4.8, MW 14,082 Da, P 0.009): −4.56
- FC DX vs Control ([1]; CRF 131, pI 4.3, MW 11,917 Da, P 0.009): 4.28
- FC DX vs Control ([1]; CRF 134, pI 5.1, MW 51,125 Da, P 0.009): 7.99
- FC DX vs Control ([1]; CRF 135, pI 7.3, MW 85,176 Da, P 1.2E-05): 4.77
- FC DX vs Control ([1]; CRF 142, pI 5.4, MW 105,458 Da, P 0.007): −5.30
- FC DX vs Control ([1]; CRF 144, P 3.7E-04): −3.70
- FC DX vs Control ([1]; CRF 145, P 4.5E-04): 3.68
- FC DX vs Control ([1]; CRF 146, P 6.2E-04): −4.19
- FC DX vs Control ([1]; CRF 147, P 0.002): −4.61
- FC DX vs Control ([1]; CRF 148, P 0.002): −5.11
- FC DX vs Control ([1]; CRF 149, P 0.002): −3.78
- FC DX vs Control ([1]; CRF 150, pI 4.11, MW 47828 Da, P 0.003): −8.39
- FC DX vs Control ([1]; CRF 151, P 0.003): 3.50
- FC DX vs Control ([1]; CRF 152, P 0.003): −3.97
- FC DX vs Control ([1]; CRF 153, P 0.004): −4.57
- FC DX vs Control ([1]; CRF 154, pI 7.79, MW 55965 Da, P 0.004): 5.39
- FC DX vs Control ([1]; CRF 155, P 0.004): −3.84
- FC DX vs Control ([1]; CRF 156, pI 6.89, MW 78237 Da, P 0.005): −3.99
- FC DX vs Control ([1]; CRF 157, P 0.005): −3.54
- FC DX vs Control ([1]; CRF 158, P 0.005): −4.59
- FC DX vs Control ([1]; CRF 159, P 0.006): 4.04
- FC DX vs Control ([1]; CRF 160, P 0.006): −6.43
- FC DX vs Control ([1]; CRF 161, P 0.006): 4.58
- FC DX vs Control ([1]; CRF 162, P 0.006): −4.37
- FC DX vs Control ([1]; CRF 163, P 0.006): 5.15
- FC DX vs Control ([1]; CRF 164, pI 4.51, MW 72286 Da, P 0.007): 4.75
- FC DX vs Control ([1]; CRF 165, P 0.007): −5.52
- FC DX vs Control ([1]; CRF 166, P 0.008): −3.86
- FC DX vs Control ([1]; CRF 167, P 0.008): 3.77
- FC DX vs Control ([1]; CRF 168, P 0.009): 4.20
- average lesion score (cytoplasmic vacuolization and myofibrillar loss) [2]: 2.1

Structure (SMILES): C[C@@H](CN1CC(=O)NC(=O)C1)N1CC(=O)NC(=O)C1 [ICRF, dexrazoxane]
- FC ICRF vs Control ([1]; CRF 28, pI 5.7, MW 26,409 Da, P 0.004): −2.93
- FC ICRF vs Control ([1]; CRF 56, pI 4.9, MW 48,318 Da, P 0.004): 3.12
- FC ICRF vs Control ([1]; CRF 162, P 0.003): −3.47
- average lesion score (cytoplasmic vacuolization and myofibrillar loss) [2]: 0
